PMC7804203, “Targeting adaptor protein SLP76 of RAGE as a therapeutic approach for lethal sepsis” (Nature Communications, 2021)

Tests used:
[1] = system: IL-6 secretion, RAW264.7 cells; test: ELISA of IL-6 from RAW264.7 cells pretreated with kinase inhibitors; format: cell-based; set-up: unit not given here
Experimental: (§1) Serum was separated from patient samples for measurement of AGEs with an ELISA kit (#MBS267540, MyBioSource, San Diego, CA, USA) according to the manufacturer’s instructions. […] Then, cultured cells were incubated with or without AGEs (100 μg/ml) for 12 h, and the supernatant was collected for the measurement of TNF (#MTA00B) and IL-6 (#M6000B) levels with ELISA kits (R&D Systems, Minneapolis, MN, USA) according to the manufacturer’s instructions.

[2] = system: TNF secretion, RAW264.7 cells; test: ELISA of TNF from RAW264.7 cells pretreated with kinase inhibitors; format: cell-based
Experimental: as §1

[3] = system: p38 MAPK phosphorylation, BMDMs; test: Western blot, p38 MAPK phosphorylation in WT or SLP76-/- BMDMs stimulated with HMGB1; format: cell-based, mice; conditions: for Relative p38 MAPK phosphorylation, Supplementary figure 12a: relative to WT Ctrl = 1
Experimental: (§2) Cultured cells in 6-well plates were harvested, washed twice with PBS, and lysed for 30 min on ice in 150 μl of cell lysis buffer (#9803) from CST (Boston, MA, USA) containing 1 mM PMSF and 2 μg/ml leupeptin. Proteins were quantified with the BCA method. Protein samples were resolved by 10% SDS-PAGE, transferred to a nitrocellulose (NC) membrane (#GE10600002), and blocked for 1 h with 5% nonfat milk in Tris-buffered saline containing 0.1% Tween 20 (TBST) at room temperature. After incubation with a specific primary antibody overnight at 4 °C, the membrane was washed with TBST three times. Then, the membrane was incubated with a secondary antibody for 1 h at room temperature. Enhanced chemiluminescence (ECL) (#32109, Thermo Fisher Scientific, Waltham, MA, USA) was used to visualize the protein bands, and images were acquired in a ChemiDoc™ Imaging System (Bio-Rad, Hercules, CA, USA). Each experiment was repeated at least three times.
(§3) BMDMs were isolated from WT, AGER knockout, and SLP76 knockout mice. Mice were euthanized, and the femur and tibia were isolated and sterilized in 70% ethanol for 15 s and then washed with PBS. A 25-gauge needle was used to flush out the bone marrow with DMEM supplemented with 1% FBS. Bone marrow cells were passed through a cell strainer (70 μm), washed with PBS, and plated into a […] dish at a density of 1 × 10^7 cells/10 ml medium. BMDMs were grown in DMEM supplemented with 10% FBS and M-CSF (#130-094-129) (20 ng/ml) at 37 °C, and the medium was refreshed on day 3. After growth for 7 days, the cells were ready for use in subsequent experiments.

[4] = system: ERK1/2 phosphorylation, BMDMs; test: Western blot, ERK1/2 phosphorylation in WT or SLP76-/- BMDMs stimulated with HMGB1; format: cell-based, mice; conditions: relative to WT Ctrl = 1
Experimental: as §2, §3

[5] = system: IKKα/β phosphorylation, BMDMs; test: Western blot, IKKα/β phosphorylation in WT or SLP76-/- BMDMs stimulated with HMGB1; format: cell-based, mice; conditions: relative to WT Ctrl = 1
Experimental: as §2, §3

[6] = system: cytosolic tail of RAGE; test: SPRi binding affinity of SAM domain peptide to RAGE cytosolic tail peptide; conditions: synthetic peptides, SAM 250, 500, 1000, 2000 nM, TBS pH 7.5, n=4
Experimental: To measure the binding affinity of the cytosolic tail of RAGE with the SAM domain of SLP76, a PlexArray HT A100 (Plexera, USA) was used to monitor the whole procedure in real time. Briefly, a chip with well-prepared biomolecular microarray was assembled with a plastic flow cell for sample loading. The synthesized peptide of RAGE cytosolic tail was prepared at 5 mM concentration in Tris-buffered saline (TBS) running buffer (20 mM Tris and 100 mM NaCl [pH 7.5]), and a 10 mM glycine-HCl buffer (pH 2.0) was used as regeneration buffer. The synthesized peptide of SLP76 SAM domain flowed at increasing concentrations (250, 500, 1000, 2000 nM). Binding data were collected and analyzed by a commercial SPRi analysis software (Plexera SPR Data Analysis Module, Plexera, USA).

[7] = AGEs-, inhibitor alone, replicate Exp1
[8] = AGEs-, inhibitor alone, replicate Exp2
[9] = AGEs-, inhibitor alone, replicate Exp3
[10] = inhibitor 1 h, then AGEs 100 μg/ml 12 h, replicate Exp1
[11] = inhibitor 1 h, then AGEs 100 μg/ml 12 h, replicate Exp2
[12] = inhibitor 1 h, then AGEs 100 μg/ml 12 h, replicate Exp3
[13] = AGEs-, inhibitor alone, replicate Exp1, in pg/mL
[14] = AGEs-, inhibitor alone, replicate Exp2, in pg/mL
[15] = AGEs-, inhibitor alone, replicate Exp3, in pg/mL
[16] = inhibitor 1 h, then AGEs 100 μg/ml 12 h, replicate Exp1, in pg/mL
[17] = inhibitor 1 h, then AGEs 100 μg/ml 12 h, replicate Exp2, in pg/mL
[18] = inhibitor 1 h, then AGEs 100 μg/ml 12 h, replicate Exp3, in pg/mL

Molecule | IL-6 level in culture medium [1, 7] | IL-6 level in culture medium [1, 8] | IL-6 level in culture medium [1, 9] | IL-6 level in culture medium [1, 10] | IL-6 level in culture medium [1, 11] | IL-6 level in culture medium [1, 12] | TNF level in culture medium [2, 13] | TNF level in culture medium [2, 14] | TNF level in culture medium [2, 15] | TNF level in culture medium [2, 16] | TNF level in culture medium [2, 17] | TNF level in culture medium [2, 18] | also measured
COc1cc(O)c2c(c1)oc(=O)c1c3cc(O)c(O)cc3oc21 [NF-kB inhibitor] | 8.8 | 7.706 | 6.631 | 22.657 | 39.53 | 43.441 | 256.62 | 271.706 | 441.431 | 3097.6 | 4273.53 | 5262.53 | 
COc1cccc(-c2cc(=O)c3ccccc3o2)c1N [PD98059] | 7.69 | 0 | 2.224 | 19.112 | 12.03 | 16.667 | 26.755 |  | 9.578 | 1779.92 | 1294.03 | 1283.56 | TNF level in culture medium [2, 8]: 0 pg/mL
C[S+]([O-])c1ccc(-c2nc(-c3ccncc3)c(-c3ccc(F)cc3)[nH]2)cc1 (centres unmarked) [SB203580] | 3.021 | 5.813 | 3.214 | 30.327 | 52.19 | 33.459 | 86.693 | 25.813 | 72.783 | 2106.86 | 5252.19 | 5785.62 | 
HMGB1: recombinant mouse HMGB1, Abcam (#ab181949) (protein, UniProt P63158 1-215, looked up) High mobility group protein B1: MGKGDPKKPRGKMSSYAFFVQTCREEHKKKHPDASVNFSEFSKKCSERWKTMSAKEKGKFEDMAKADKARYEREMKTYIPPKGETKKKFKDPNAPKRPPSAFFLFCSEYRPKIKGEHPGLSIGDVAKKLGEMWNNTAADDKQPYEKKAAKLKEKYEKDIAAYRAKGKPDAAKKGVVKAEKSKKKKEEEDDEEDEEDEEEEEEEEDEDEEEDDDDE |  |  |  |  |  |  |  |  |  |  |  |  | Activation of proinflammatory signaling pathways ([3]; HMGB1 400 ng/ml, 15 min, p38 MAPK, ERK1/2, IKKα/β, text says RAW264.7 cells, figure BMDMs): activated proinflammatory signaling pathways via SLP76; Relative p38 MAPK phosphorylation, Supplementary figure 12a ([3]; SLP76-/-, Exp1): 2.8038; Relative p38 MAPK phosphorylation, Supplementary figure 12a ([3]; SLP76-/-, Exp2): 3.004; Relative p38 MAPK phosphorylation, Supplementary figure 12a ([3]; SLP76-/-, Exp3): 2.223; Relative p38 MAPK phosphorylation, Supplementary figure 12a ([3]; WT, Exp1): 7.041; Relative p38 MAPK phosphorylation, Supplementary figure 12a ([3]; WT, Exp2): 4.728; Relative p38 MAPK phosphorylation, Supplementary figure 12a ([3]; WT, Exp3): 5.924; Relative ERK1/2 phosphorylation, Supplementary figure 12b ([4]; SLP76-/-, Exp1): 7.033; Relative ERK1/2 phosphorylation, Supplementary figure 12b ([4]; SLP76-/-, Exp2): 9.087; Relative ERK1/2 phosphorylation, Supplementary figure 12b ([4]; SLP76-/-, Exp3): 4.787; Relative ERK1/2 phosphorylation, Supplementary figure 12b ([4]; WT, Exp1): 15.3469; Relative ERK1/2 phosphorylation, Supplementary figure 12b ([4]; WT, Exp2): 12.0882; Relative ERK1/2 phosphorylation, Supplementary figure 12b ([4]; WT, Exp3): 9.928; Relative IKKα/β phosphorylation, Supplementary figure 12c ([5]; SLP76-/-, Exp1): 0.8306; Relative IKKα/β phosphorylation, Supplementary figure 12c ([5]; SLP76-/-, Exp2): 2.523; Relative IKKα/β phosphorylation, Supplementary figure 12c ([5]; SLP76-/-, Exp3): 0.8014; Relative IKKα/β phosphorylation, Supplementary figure 12c ([5]; WT, Exp1): 3.067; Relative IKKα/β phosphorylation, Supplementary figure 12c ([5]; WT, Exp2): 3.67; Relative IKKα/β phosphorylation, Supplementary figure 12c ([5]; WT, Exp3): 5.409
SAM domain of SLP76: synthesized peptide of SLP76 SAM domain used in SPRi (peptide) peptide: WDPDSLADYFKKLNYKDCEKAVKKYHIDGARFLNLTENDIQKFPKLRVPILSKLSQEINKNEERRSI |  |  |  |  |  |  |  |  |  |  |  |  | Binding to cytosolic tail of RAGE [6]: dose-dependent binding
